Assay results taken from PubChem BioAssay (NCI).
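48-hour exposure; five concentrations; linearly interpolated endpoints. TGI: total growth inhibition.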

Assays:
Experiment in all cases: growth of human tumour cells (NCI), 48 h
786-0 renal = system: 786-0 renal
A549 NSCLC = system: A549 NSCLC
ACHN renal = system: ACHN renal
BT-549 breast = system: BT-549 breast
CAKI-1 renal = system: CAKI-1 renal
COLO 205 colon = system: COLO 205 colon
DU-145 prostate = system: DU-145 prostate
HCC-2998 colon = system: HCC-2998 colon
HCT-116 colon = system: HCT-116 colon
HCT-15 colon = system: HCT-15 colon
HL-60(TB) leukemia = system: HL-60(TB) leukemia
HOP-62 NSCLC = system: HOP-62 NSCLC
HOP-92 NSCLC = system: HOP-92 NSCLC
HS 578T breast = system: HS 578T breast
HT29 colon = system: HT29 colon
K-562 leukemia = system: K-562 leukemia
KM12 colon = system: KM12 colon
LOX IMVI melanoma = system: LOX IMVI melanoma
M14 melanoma = system: M14 melanoma
MALME-3M melanoma = system: MALME-3M melanoma
MCF7 breast = system: MCF7 breast
MDA-MB-231 breast = system: MDA-MB-231 breast
MDA-MB-435 = system: MDA-MB-435
MDA-N = system: MDA-N
MOLT-4 leukemia = system: MOLT-4 leukemia
NCI-H23 lung = system: NCI-H23 lung
NCI-H522 lung = system: NCI-H522 lung
NCI/ADR-RES ovarian = system: NCI/ADR-RES ovarian
OVCAR-3 ovarian = system: OVCAR-3 ovarian
OVCAR-4 ovarian = system: OVCAR-4 ovarian
OVCAR-5 ovarian = system: OVCAR-5 ovarian
OVCAR-8 ovarian = system: OVCAR-8 ovarian
PC-3 prostate = system: PC-3 prostate
RPMI-8226 leukemia = system: RPMI-8226 leukemia
SF-268 CNS = system: SF-268 CNS
SF-295 CNS = system: SF-295 CNS
SF-539 CNS = system: SF-539 CNS
SK-MEL-28 melanoma = system: SK-MEL-28 melanoma
SK-MEL-5 melanoma = system: SK-MEL-5 melanoma
SK-OV-3 ovarian = system: SK-OV-3 ovarian
SN12C renal = system: SN12C renal
SNB-19 CNS = system: SNB-19 CNS
SNB-75 CNS = system: SNB-75 CNS
SR leukemia = system: SR leukemia
SW-620 colon = system: SW-620 colon
TK-10 renal = system: TK-10 renal
U251 CNS = system: U251 CNS
UACC-257 melanoma = system: UACC-257 melanoma
A498 renal = system: A498 renal
CCRF-CEM leukemia = system: CCRF-CEM leukemia
EKVX NSCLC = system: EKVX NSCLC
IGROV1 ovarian = system: IGROV1 ovarian
RXF 393 renal = system: RXF 393 renal
SK-MEL-2 melanoma = system: SK-MEL-2 melanoma
UACC-62 melanoma = system: UACC-62 melanoma
UO-31 renal = system: UO-31 renal
NCI-H226 lung = system: NCI-H226 lung
NCI-H460 lung = system: NCI-H460 lung

## COc1nc(N)c(C#N)c(C#N)c1C#N
786-0 renal
  TGI: > 10 µM
A549 NSCLC
  TGI: > 10 µM
ACHN renal
  TGI: > 10 µM
BT-549 breast
  TGI: > 10 µM
CAKI-1 renal
  TGI: > 10 µM
COLO 205 colon
  TGI: > 10 µM
DU-145 prostate
  TGI: > 10 µM
HCC-2998 colon
  TGI: > 10 µM
HCT-116 colon
  TGI: > 10 µM
HCT-15 colon
  TGI: > 10 µM
HL-60(TB) leukemia
  TGI: > 10 µM
HOP-62 NSCLC
  TGI: > 10 µM
HOP-92 NSCLC
  TGI: > 10 µM
HS 578T breast
  TGI: > 10 µM
HT29 colon
  TGI: > 10 µM
K-562 leukemia
  TGI: > 10 µM
KM12 colon
  TGI: > 10 µM
LOX IMVI melanoma
  TGI: > 10 µM
M14 melanoma
  TGI: > 10 µM
MALME-3M melanoma
  TGI: > 10 µM
MCF7 breast
  TGI: > 10 µM
MDA-MB-231 breast
  TGI: > 10 µM
MDA-MB-435
  TGI: > 10 µM
MDA-N
  TGI: > 10 µM
MOLT-4 leukemia
  TGI: > 10 µM
NCI-H23 lung
  TGI: > 10 µM
NCI-H522 lung
  TGI: > 10 µM
NCI/ADR-RES ovarian
  TGI: > 10 µM
OVCAR-3 ovarian
  TGI: > 10 µM
OVCAR-4 ovarian
  TGI: > 10 µM
OVCAR-5 ovarian
  TGI: > 10 µM
OVCAR-8 ovarian
  TGI: > 10 µM
PC-3 prostate
  TGI: > 10 µM
RPMI-8226 leukemia
  TGI: > 10 µM
SF-268 CNS
  TGI: > 10 µM
SF-295 CNS
  TGI: > 10 µM
SF-539 CNS
  TGI: > 10 µM
SK-MEL-28 melanoma
  TGI: > 10 µM
SK-MEL-5 melanoma
  TGI: > 10 µM
SK-OV-3 ovarian
  TGI: > 10 µM
SN12C renal
  TGI: > 10 µM
SNB-19 CNS
  TGI: > 10 µM
SNB-75 CNS
  TGI: > 10 µM
SR leukemia
  TGI: > 10 µM
SW-620 colon
  TGI: > 10 µM
TK-10 renal
  TGI: > 10 µM
U251 CNS
  TGI: > 10 µM
UACC-257 melanoma
  TGI: > 10 µM

## COC(=O)[C@H](NC(=O)OC(C)(C)C)[C@H]1COC(C)(C)O1
786-0 renal
  TGI: > 100 µM
A498 renal
  TGI: > 100 µM
A549 NSCLC
  TGI: > 100 µM
ACHN renal
  TGI: > 100 µM
BT-549 breast
  TGI: > 100 µM
CAKI-1 renal
  TGI: > 100 µM
CCRF-CEM leukemia
  TGI: > 100 µM
COLO 205 colon
  TGI: > 100 µM
DU-145 prostate
  TGI: > 100 µM
EKVX NSCLC
  TGI: > 100 µM
HCC-2998 colon
  TGI: > 100 µM
HCT-116 colon
  TGI: > 100 µM
HCT-15 colon
  TGI: > 100 µM
HL-60(TB) leukemia
  TGI: > 100 µM
HOP-62 NSCLC
  TGI: > 100 µM
HT29 colon
  TGI: > 100 µM
IGROV1 ovarian
  TGI: > 100 µM
K-562 leukemia
  TGI: > 100 µM
KM12 colon
  TGI: > 100 µM
LOX IMVI melanoma
  TGI: > 100 µM
M14 melanoma
  TGI: > 100 µM
MALME-3M melanoma
  TGI: > 100 µM
MCF7 breast
  TGI: > 100 µM
MDA-MB-231 breast
  TGI: > 100 µM
MDA-MB-435
  TGI: > 100 µM
MDA-N
  TGI: > 100 µM
MOLT-4 leukemia
  TGI: > 100 µM
NCI-H23 lung
  TGI: > 100 µM
NCI-H522 lung
  TGI: > 100 µM
NCI/ADR-RES ovarian
  TGI: > 100 µM
OVCAR-3 ovarian
  TGI: > 100 µM
OVCAR-4 ovarian
  TGI: > 100 µM
OVCAR-5 ovarian
  TGI: > 100 µM
OVCAR-8 ovarian
  TGI: > 100 µM
PC-3 prostate
  TGI: > 100 µM
RPMI-8226 leukemia
  TGI: > 100 µM
RXF 393 renal
  TGI: > 100 µM
SF-268 CNS
  TGI: > 100 µM
SF-295 CNS
  TGI: > 100 µM
SF-539 CNS
  TGI: > 100 µM
SK-MEL-2 melanoma
  TGI: > 100 µM
SK-MEL-28 melanoma
  TGI: > 100 µM
SK-MEL-5 melanoma
  TGI: > 100 µM
SK-OV-3 ovarian
  TGI: > 100 µM
SN12C renal
  TGI: > 100 µM
SNB-19 CNS
  TGI: > 100 µM
SR leukemia
  TGI: > 100 µM
SW-620 colon
  TGI: > 100 µM
TK-10 renal
  TGI: > 100 µM
U251 CNS
  TGI: > 100 µM
UACC-257 melanoma
  TGI: > 100 µM
UACC-62 melanoma
  TGI: > 100 µM
UO-31 renal
  TGI: > 100 µM

## Cc1cc(C)c(S(=O)(=O)N2CCN(S(=O)(=O)c3c(C)cc(C)cc3C)OCCCCCO2)c(C)c1
786-0 renal
  TGI: > 100 µM
A498 renal
  TGI: > 100 µM
A549 NSCLC
  TGI: > 100 µM
ACHN renal
  TGI: > 100 µM
BT-549 breast
  TGI: > 100 µM
CAKI-1 renal
  TGI: > 100 µM
CCRF-CEM leukemia
  TGI: > 100 µM
COLO 205 colon
  TGI: > 100 µM
DU-145 prostate
  TGI: > 100 µM
EKVX NSCLC
  TGI: > 100 µM
HCT-116 colon
  TGI: > 100 µM
HCT-15 colon
  TGI: > 100 µM
HL-60(TB) leukemia
  TGI: > 100 µM
HOP-62 NSCLC
  TGI: > 100 µM
HOP-92 NSCLC
  TGI: > 100 µM
HS 578T breast
  TGI: > 100 µM
HT29 colon
  TGI: > 100 µM
IGROV1 ovarian
  TGI: > 100 µM
K-562 leukemia
  TGI: > 100 µM
KM12 colon
  TGI: > 100 µM
LOX IMVI melanoma
  TGI: > 100 µM
M14 melanoma
  TGI: > 100 µM
MALME-3M melanoma
  TGI: > 100 µM
MCF7 breast
  TGI: > 100 µM
MDA-MB-435
  TGI: > 100 µM
MDA-N
  TGI: > 100 µM
MOLT-4 leukemia
  TGI: > 100 µM
NCI-H226 lung
  TGI: > 100 µM
NCI-H23 lung
  TGI: > 100 µM
NCI-H460 lung
  TGI: > 100 µM
NCI-H522 lung
  TGI: > 100 µM
NCI/ADR-RES ovarian
  TGI: > 100 µM
OVCAR-3 ovarian
  TGI: > 100 µM
OVCAR-4 ovarian
  TGI: > 100 µM
OVCAR-5 ovarian
  TGI: > 100 µM
OVCAR-8 ovarian
  TGI: > 100 µM
PC-3 prostate
  TGI: > 100 µM
SF-268 CNS
  TGI: > 100 µM
SF-295 CNS
  TGI: > 100 µM
SK-MEL-2 melanoma
  TGI: > 100 µM
SK-MEL-28 melanoma
  TGI: > 100 µM
SK-MEL-5 melanoma
  TGI: > 100 µM
SK-OV-3 ovarian
  TGI: > 100 µM
SN12C renal
  TGI: > 100 µM
SNB-19 CNS
  TGI: > 100 µM
SW-620 colon
  TGI: > 100 µM
TK-10 renal
  TGI: > 100 µM
U251 CNS
  TGI: > 100 µM
UACC-257 melanoma
  TGI: > 100 µM
UACC-62 melanoma
  TGI: > 100 µM
UO-31 renal
  TGI: > 100 µM
